Data reported in patent EP4035684A1, “AFFINITY ILLUDOFULVENE CONJUGATES” (AF Chemical LLC, priority 2019, dated 2022).
Where a SMILES comes first, the peptide text is derived from it. [ ]: non-standard residue; d: D form. The star is where a group is joined. ξ: configuration not given here. Dolaproine = CO[C@@H]([C@@H]1CCCN1)[C@@H](C)C(=O)O; X4 = CC1=C(C*)C2=C(C)C3(CC3)[C@@](C)(O)C(=O)C2=C1; Dil = CC[C@H](C)[C@H](NC)[C@@H](CC(=O)O)OC; X1 = C[C@@H](N*)[C@@H](O)c1ccccc1; NMeV = CN[C@H](C(=O)O)C(C)C; ξC = NC(CS)C(=O)O

Experiments:
[1] = system: NCI 60 cell line panel; experiment: NCI DTP 60 cell line screen assay; conditions: for Cytotoxicity: ability to actually kill tumor cells versus only inhibiting growth
From the text: An ADC is engulfed by a tumor cell, transported to the endosomes (pH < 6.0) and then into the lysozomes (pH < 4). […] 4) Cancer cells can become resistant to various toxins and drugs through the development of what is termed multi-drug resistance. This process is known to occur through several different mechanisms.

[2] = system: MV522 cell line; experiment: cells; format: cell-based
[3] = system: 8392B cell line; experiment: Two hour toxicity: inhibition of DNA synthesis activity, nontarget cell line; format: cell-based
[4] = system: MV522 cell line; experiment: 48 hour exposure, growth or viability by Trypan Blue Exclusion assay, target cell line; format: cell-based; conditions: read-out: Mean IC50 value (nM) ± SD, N=3 unless otherwise indicated
[5] = system: 8392B cell line; experiment: cells; format: cell-based; conditions: read-out: Mean IC50 value (nM) ± SD, N=3 unless otherwise indicated, 8392B Nontarget Cell Line, 48 hr exposure, 8392B nontarget cell line, mean ± SD, N=3 unless otherwise indicated
[6] = read-out: Mean IC50 value (nM) ± SD, N=3 unless otherwise indicated, MV522 Target Cell Line, 2 hr exposure, MV522 target cell line, 2 hr exposure, mean ± SD, N=3 unless otherwise indicated
[7] = read-out: Mean IC50 value (nM) ± SD, N=3 unless otherwise indicated, 8392B Nontarget Cell Line, 2 hr exposure, 8392B nontarget cell line, 2 hr exposure, mean ± SD, N=3 unless otherwise indicated

COc1cc2cc(c1Cl)N(C)C(=O)C[C@H](OC(=O)[C@H](C)N(C)C(=O)CCS)[C@]1(C)O[C@H]1[C@H](C)[C@@H]1C[C@@](O)(NC(=O)O1)[C@H](OC)/C=C/C=C(\C)C2 [DM1, reference compound]
Cytotoxicity [1]: not cytotoxic and No

C/C(=C\c1csc(C)n1)[C@@H]1C[C@@H]2O[C@@H]2CCC[C@H](C)[C@H](O)[C@@H](C)C(=O)C(C)(C)[C@@H](O)CC(=O)O1 [Epothilone A, reference compound]
Cytotoxicity [1]: not cytotoxic and No

CC[C@H](C)[C@@H]([C@@H](CC(=O)N1CCC[C@H]1[C@H](OC)[C@@H](C)C(=O)N[C@H](C)[C@@H](O)c1ccccc1)OC)N(C)C(=O)[C@@H](NC(=O)[C@@H](NC)C(C)C)C(C)C [MMAE, N-methylvaline-valine-dolaisoleuine-dolaproine-norephedrine, reference compound] (H-[NMeV]V[Dil][Dolaproine]-X1)
MDR Activity [1]: No
MDR Activity ([1]; listed as MMA): not MDR active
Cytotoxicity [1]: No
Cytotoxicity ([1]; listed as MMA): not cytotoxic

CC1=C(CO)C2=C(C)C3(CC3)[C@@](C)(O)C(=O)C2=C1 [analog 002, (6'R)-6'-hydroxy-3'-(hydroxymethyl)-2',4',6'-trimethylspiro[cyclopropane-1,5'-inden]-7'(6'H)-one]
IC50 ([2]; MV522, 2 h, read-out: IC50 MV522): 110 nM
IC50 ([3]; 2 hour exposure, nontarget cell line, read-out: IC50 8392B): > 26000 nM

CC1=CC2=C(C)C3(CC3)[C@@](C)(O)/C(=N/O)C2=C1 [analog 224, (R,E)-6'-hydroxy-2',4',6'-trimethylspiro[cyclopropane-1,5 '-inden]-7'(6'H)-one oxime]
toxicity ([2]; target and nontarget cell line, in words): minimal toxicity

CC(=O)OC[C@]1(C)C=C2C(=O)[C@](C)(O)C3(CC3)C(C)=C2[C@H]1OC(=O)N(C)CCN(C)C(=O)OC(C)(C)C [analog 334, ((2'S,3'R,6'R)-3'-(((2-((tert-butoxycarbonyl)(methyl)amino)ethyl)(methyl)carbamoyl)oxy)-6'-hydroxy-2',4',6'-trimethyl-7'-oxo-2',3',6',7'-tetrahydrospiro[cyclopropane-1,5' - inden]-2' - yl)methylacetate]
Cytotoxicity [1]: cytotoxic

CC1=C2C(=C[C@@](C)(COS(C)(=O)=O)[C@@H]2O)C(=O)[C@](C)(O)C12CC2 [analog 362, ((2'S,3'R,6'R)-3',6'-dihydroxy-2',4',6'-trimethyl-7'-oxo-2',3',6',7'-tetrahydrospiro[cyclopropane-1,5'-inden]-2'-yl)methyl methanesulfonate]
Cytotoxicity [1]: cytotoxic

CC(=O)O[C@@H]1C2=C(C)C3(CC3)[C@@](C)(O)C(=O)C2=C[C@@]1(C)CO [analog 371, (2'S,3'R,6'R)-6'-hydroxy-2'-(hydroxymethyl)-2',4',6'-trimethyl-7'-oxo-2',3',6',7'-tetrahydrospiro[cyclopropane-1,5'-inden]-3'-yl acetate]
Cytotoxicity [1]: cytotoxic

CC1=C2C(=C[C@@](C)(C=O)[C@@H]2O)C(=O)[C@](C)(O)C12CC2 [analog 383, (2'R,3'R,6'R)-3',6'-dihydroxy-2',4',6'-trimethyl-7'-oxo-2',3',6',7'-tetrahydrospiro[cyclopropane-1,5'-indene]-2'-carbaldehyde]
Cytotoxicity [1]: cytotoxic

CC1=C(CNO)C2=C(C)C3(CC3)[C@@](C)(O)C(=O)C2=C1 [analog 394, (R)-6'-hydroxy-3'-((hydroxyamino)methyl)-2',4',6'-trimethylspiro[cyclopropane-1,5'-inden]-7'(6'H)-one]
Cytotoxicity [1]: cytotoxic

CC1=C(CO)C2=C(C)C3(CC3)[C@@](C)(O)C(=O)C2=C1 [compound 002]
MDR Activity [1]: Yes
Activity Value ([1]; negative = lyses tumor cells, zero = no growth, positive = slower growth): -15
IC50 ([2]; MV522, 2 h, read-out: Mean IC50 value (nM) ± SD, N=3 unless otherwise indicated, MV522 Target Cell Line, 2 hr exposure): 110 ± 40 nM

CC1=C(COCCBr)C2=C(C)C3(CC3)[C@@](C)(O)C(=O)C2=C1 [compound 020]
IC50 [2, 6]: 530 ± 140 nM
IC50 [3, 7]: 25000 ± 3100 nM

CC1=C(CSC[C@H](NC(=O)[C@H](CCCNC(=N)N)NC(=O)CNC(=O)[C@H](CC(N)=O)NC(=O)[C@@H](N)CSCC2=C(C)C=C3C(=O)[C@](C)(O)C4(CC4)C(C)=C32)C(=O)O)C2=C(C)C3(CC3)[C@@](C)(O)C(=O)C2=C1 [compound 100] (H-C(X4)NGRC(X4)-OH)
IC50 [2, 6]: > 10000 nM
IC50 [4]: 1700 ± 500 nM

CC1=C(CSCC(N)C(=O)N[C@@H](CCCNC(=N)N)C(=O)NCC(=O)N[C@@H](CC(N)=O)C(=O)NC(CSCC2=C(C)C=C3C(=O)[C@](C)(O)C4(CC4)C(C)=C32)C(=O)O)C2=C(C)C3(CC3)[C@@](C)(O)C(=O)C2=C1 (stereo partly shown) [compound 101] (H-[ξC](X4)RGN[ξC](X4)-OH)
IC50 [2, 6]: > 8000 nM
IC50 [4]: > 7500 nM

CC(=O)ON(C(C)=O)c1ccc(C(=O)OC[C@]2(C)C=C3C(=O)[C@](C)(O)C4(CC4)C(C)=C3C2OC(=O)c2ccc(N(OC(C)=O)C(C)=O)cc2)cc1 (stereo partly shown) [compound 140]
IC50 [4]: > 14000 nM
IC50 [5]: > 14000 nM

COC(=O)C1=C(C(=O)OC)C23C=C(C)C1C2=C(C)C1(CC1)[C@@](C)(O)C3O (stereo partly shown) [compound 141]
IC50 [3, 7]: 13700 ± 1900 nM
IC50 [4]: 3700 ± 800 nM

COC(=O)C1=C(C(=O)OC)C23C=C(C)C1C2=C(C)C1(CC1)[C@@](C)(O)C3=O (stereo partly shown) [compound 142]
MDR Activity [1]: Yes
Cytotoxicity [1]: Yes
IC50 [4]: 24 ± 7 nM

CC1=C(CSc2nc3ccccc3s2)C2=C(C)C3(CC3)[C@@](C)(O)C(=O)C2=C1 [compound 147]
IC50 [2, 6]: > 76000 nM
IC50 [3, 7]: > 76000 nM

CC1=C(CSc2nnnn2-c2ccc(O)cc2)C2=C(C)C3(CC3)[C@@](C)(O)C(=O)C2=C1 [compound 154]
IC50 [2, 6]: > 70000 nM
IC50 [3, 7]: > 70000 nM

CC(=O)Oc1ccc(-n2nnnc2SCC2=C(C)C=C3C(=O)[C@](C)(O)C4(CC4)C(C)=C32)cc1 [compound 155]
IC50 [2, 6]: 8200 ± 1200 nM
IC50 [3, 7]: 17000 nM
IC50 [4]: 3600 ± 400 nM
IC50 [5]: 9100 ± 1100 nM

CC1=C(CCCOC(=O)C(N)CC(C)C)C2=C(C)C3(CC3)[C@@](C)(O)C(=O)C2=C1 (stereo partly shown) [compound 176]
MDR Activity [1]: Yes
Cytotoxicity [1]: Yes

CC1=C(CCCOC(=O)[C@@H]2CCCN2C(=O)[C@H](CO)NC(=O)OC(C)(C)C)C2=C(C)C3(CC3)[C@@](C)(O)C(=O)C2=C1 [compound 208]
IC50 [3, 7]: 25000 nM
IC50 [4]: 930 ± 160 nM

CC1=C2C(=CC(C)(CO[Si](C)(C)C(C)(C)C)C2OC(=O)c2ccc(S(=O)(=O)F)cc2)C(=O)C(C)(O)C12CC2 (stereo not shown) [compound 219]
IC50 [2, 6]: > 52000 nM
IC50 [3, 7]: > 52000 nM
IC50 [4]: > 52 nM
IC50 [5]: > 52000 nM

CCCCCCCC/C=C/CCCCCCCC(=O)OCCCC1=C(C)C=C2C(=O)[C@](C)(O)C3(CC3)C(C)=C21 [compound 227]
IC50 [2, 6]: > 57000 nM
IC50 [3, 7]: > 57000 nM

CC1=C(CCCOC(=O)NCCCl)C2=C(C)C3(CC3)[C@@](C)(O)C(=O)C2=C1 [compound 238]
IC50 [2, 6]: 780 ± 190 nM
IC50 [4]: 57 ± 8 nM

CC1=C(CCCNS(=O)(=O)c2ccc(C)cc2)C2=C(C)C3(CC3)[C@@](C)(O)C(=O)C2=C1 [compound 242]
IC50 [4]: 580 ± 150 nM

CC1=C2C(O)C(C)(C)C3CC23C(=O)C(C)(O)C12CC2 (stereo not shown) [compound 252]
IC50 [2, 6]: > 380000 nM
IC50 [3, 7]: > 380000 nM
IC50 [5]: > 380000 nM

CC1=C(CCCOC(=O)c2cn(CC3=C(C)C=C4C(=O)[C@](C)(O)C5(CC5)C(C)=C43)nn2)C2=C(C)C3(CC3)[C@@](C)(O)C(=O)C2=C1 [compound 257]
IC50 [4]: 320 ± 30 nM

CC1=C(CCCNS(=O)(=O)NO)C2=CC3(CC3)C(C)(O)C(=O)C2=C1 (stereo not shown) [compound 265]
IC50 [2, 6]: 810 ± 20 nM
IC50 [4]: 8 ± 1 nM

CC1=C(CNC(=O)NO)C2=C(C)C3(CC3)[C@@](C)(O)C(=O)C2=C1 [compound 277]
IC50 [3, 7]: 31000 nM
IC50 [4]: 190 ± 20 nM
IC50 [5]: 9800 nM

CC1=C(CNC(=O)NCCO)C2=C(C)C3(CC3)[C@@](C)(O)C(=O)C2=C1 [compound 279]
IC50 [3, 7]: > 90000 nM
IC50 [4]: 190 ± 20 nM
IC50 [5]: > 9000 nM

CC1=C(CCCNC(=O)NCCO)C2=C(C)C3(CC3)[C@@](C)(O)C(=O)C2=C1 [compound 280]
IC50 [3, 7]: > 83000 nM
IC50 [4]: < 80 nM
IC50 [5]: > 2800 nM

CC1=C(CNC(=O)NCCCl)C2=C(C)C3(CC3)[C@@](C)(O)C(=O)C2=C1 [compound 282]
IC50 [2, 6]: 680 ± 60 nM
IC50 [3, 7]: > 85000 nM
IC50 [5]: > 8500 nM

CC1=C(Cn2c(=O)[nH]cc(F)c2=O)C2=C(C)C3(CC3)[C@@](C)(O)C(=O)C2=C1 [compound 287]
IC50 [2, 6]: 455000 ± 22000 nM
IC50 [3, 7]: 567000 ± 17000 nM

CC1=C(CCCOC(=O)CNC(=O)OC(C)(C)C)C2=C(C)C3(CC3)[C@@](C)(O)C(=O)C2=C1 [compound 298]
IC50 [2, 6]: > 7000 nM

CC(=O)OC[C@]1(C)C=C2C(=O)[C@](C)(O)C3(CC3)C(C)=C2[C@H]1OC(=O)N(C)CCN(C)C(=O)OC(C)(C)C [compound 334]
MDR Activity [1]: Yes
Cytotoxicity [1]: Yes

CC1=C2C(=C[C@@](C)(COS(C)(=O)=O)[C@@H]2O)C(=O)[C@](C)(O)C12CC2 [compound 362]
MDR Activity [1]: Yes
Cytotoxicity [1]: Yes

CC(=O)O[C@@H]1C2=C(C)C3(CC3)[C@@](C)(O)C(=O)C2=C[C@@]1(C)CO [compound 371]
MDR Activity [1]: Yes
Cytotoxicity [1]: Yes

CC1=C2C(=C[C@@](C)(C=O)[C@@H]2O)C(=O)[C@](C)(O)C12CC2 [compound 383]
MDR Activity [1]: Yes
Cytotoxicity [1]: Yes

CC1=C(CNO)C2=C(C)C3(CC3)[C@@](C)(O)C(=O)C2=C1 [compound 394]
MDR Activity [1]: Yes
Cytotoxicity [1]: Yes
